According to the NIST ThermoML archive (doi:10.1016/j.fluid.2018.04.007):

Legend:
[1] = refractive index (Na D-line) (dimensionless); xn = mol fraction of the nth substance listed; details: 101 kPa, Liquid, Standard Abbe refractometry
[2] = relative permittivity at various frequencies (dimensionless); xn = mol fraction of the nth substance listed; details: 101 kPa, Liquid, Frequency=1 MHz, Parallel plate capacitor

CCCCCCN [1-hexanamine] + CCCCCCCO
Details	refractive index, 293.15 K	refractive index, 298.15 K	refractive index, 303.15 K	relative permittivity, 293.15 K	relative permittivity, 298.15 K	relative permittivity, 303.15 K
[1], x2 = 0	1.41807	1.41563	1.41321	–	–	–
[1], x2 = 0.056	1.41916	1.41674	1.41434	–	–	–
[1], x2 = 0.1018	1.41999	1.41761	1.41523	–	–	–
[1], x2 = 0.1463	1.42077	1.4184	1.41604	–	–	–
[1], x2 = 0.2047	1.42171	1.41937	1.41703	–	–	–
[1], x2 = 0.3044	1.4231	1.4208	1.41853	–	–	–
[1], x2 = 0.4059	1.42423	1.42197	1.41974	–	–	–
[1], x2 = 0.5044	1.42503	1.4228	1.42062	–	–	–
[1], x2 = 0.602	1.4255	1.42331	1.42116	–	–	–
[1], x2 = 0.7029	1.42563	1.42351	1.42142	–	–	–
[1], x2 = 0.7979	1.42545	1.42339	1.42136	–	–	–
[1], x2 = 0.8534	1.42521	1.4232	1.4212	–	–	–
[1], x2 = 0.8986	1.42496	1.42299	1.42103	–	–	–
[1], x2 = 0.9472	1.42464	1.42271	1.42079	–	–	–
[2], x2 = 0	–	–	–	3.963	3.903	3.848
[2], x2 = 0.0503	–	–	–	4.202	4.133	4.07
[2], x2 = 0.095	–	–	–	4.414	4.339	4.271
[2], x2 = 0.1606	–	–	–	4.731	4.644	4.567
[2], x2 = 0.2073	–	–	–	4.97	4.882	4.796
[2], x2 = 0.3067	–	–	–	5.497	5.392	5.291
[2], x2 = 0.4038	–	–	–	6.064	5.934	5.811
[2], x2 = 0.4991	–	–	–	6.671	6.508	6.358
[2], x2 = 0.6036	–	–	–	7.425	7.224	7.035
[2], x2 = 0.7001	–	–	–	8.239	7.981	7.746
[2], x2 = 0.8007	–	–	–	9.272	8.951	8.651
[2], x2 = 0.8524	–	–	–	9.877	9.521	9.177
[2], x2 = 0.8904	–	–	–	10.381	9.983	9.607
[2], x2 = 0.9402	–	–	–	11.091	10.642	10.222

CCCCCCN [1-hexanamine] + CCCCCO
Details	refractive index, 293.15 K	refractive index, 298.15 K	refractive index, 303.15 K	relative permittivity, 293.15 K	relative permittivity, 298.15 K	relative permittivity, 303.15 K
[1], x2 = 0	1.41813	1.41563	1.41324	–	–	–
[1], x2 = 0.0472	1.41838	1.41592	1.4136	–	–	–
[1], x2 = 0.1005	1.41862	1.41622	1.41392	–	–	–
[1], x2 = 0.1648	1.41884	1.41649	1.41424	–	–	–
[1], x2 = 0.2022	1.41896	1.4166	1.41438	–	–	–
[1], x2 = 0.3102	1.41908	1.41679	1.41458	–	–	–
[1], x2 = 0.3982	1.41895	1.41671	1.41451	–	–	–
[1], x2 = 0.5002	1.41846	1.41623	1.41407	–	–	–
[1], x2 = 0.6005	1.41756	1.41543	1.41329	–	–	–
[1], x2 = 0.7122	1.41609	1.41403	1.41193	–	–	–
[1], x2 = 0.7963	1.41463	1.41259	1.41054	–	–	–
[1], x2 = 0.8457	1.41364	1.41164	1.40958	–	–	–
[1], x2 = 0.8982	1.41246	1.41048	1.40844	–	–	–
[1], x2 = 0.9362	1.41153	1.40957	1.40754	–	–	–
[2], x2 = 0	–	–	–	3.967	3.905	3.846
[2], x2 = 0.052	–	–	–	4.248	4.176	4.11
[2], x2 = 0.1079	–	–	–	4.563	4.485	4.408
[2], x2 = 0.1601	–	–	–	4.876	4.785	4.701
[2], x2 = 0.2014	–	–	–	5.146	5.047	4.957
[2], x2 = 0.31	–	–	–	5.924	5.796	5.675
[2], x2 = 0.3982	–	–	–	6.653	6.494	6.348
[2], x2 = 0.5031	–	–	–	7.689	7.486	7.298
[2], x2 = 0.6013	–	–	–	8.827	8.567	8.319
[2], x2 = 0.6916	–	–	–	10.025	9.702	9.397
[2], x2 = 0.7952	–	–	–	11.649	11.246	10.864
[2], x2 = 0.8396	–	–	–	12.419	11.973	11.555
[2], x2 = 0.9006	–	–	–	13.582	13.084	12.61
[2], x2 = 0.9431	–	–	–	14.457	13.913	13.397

CCCCCCN [1-hexanamine] + CCCCO
Details	refractive index, 293.15 K	refractive index, 298.15 K	refractive index, 303.15 K	relative permittivity, 293.15 K	relative permittivity, 298.15 K	relative permittivity, 303.15 K
[1], x2 = 0	1.4181	1.41565	1.41322	–	–	–
[1], x2 = 0.0552	1.41812	1.41564	1.41324	–	–	–
[1], x2 = 0.0896	1.418	1.41556	1.41319	–	–	–
[1], x2 = 0.1588	1.41781	1.41542	1.41306	–	–	–
[1], x2 = 0.1967	1.41768	1.41529	1.41294	–	–	–
[1], x2 = 0.3035	1.41702	1.4147	1.4124	–	–	–
[1], x2 = 0.4077	1.41603	1.41381	1.41148	–	–	–
[1], x2 = 0.4984	1.41487	1.41267	1.4104	–	–	–
[1], x2 = 0.6004	1.41298	1.41079	1.40852	–	–	–
[1], x2 = 0.6977	1.41065	1.40845	1.40621	–	–	–
[1], x2 = 0.7982	1.40746	1.40534	1.40316	–	–	–
[1], x2 = 0.8451	1.40577	1.40368	1.40155	–	–	–
[1], x2 = 0.8996	1.40359	1.40158	1.39949	–	–	–
[1], x2 = 0.9461	1.40166	1.39965	1.39765	–	–	–
[2], x2 = 0	–	–	–	3.965	3.904	3.845
[2], x2 = 0.051	–	–	–	4.258	4.186	4.12
[2], x2 = 0.0969	–	–	–	4.538	4.46	4.385
[2], x2 = 0.1402	–	–	–	4.828	4.739	4.656
[2], x2 = 0.2052	–	–	–	5.294	5.19	5.094
[2], x2 = 0.3095	–	–	–	6.164	6.028	5.898
[2], x2 = 0.4059	–	–	–	7.139	6.965	6.797
[2], x2 = 0.5054	–	–	–	8.352	8.121	7.905
[2], x2 = 0.593	–	–	–	9.623	9.333	9.058
[2], x2 = 0.6983	–	–	–	11.376	11.005	10.656
[2], x2 = 0.8047	–	–	–	13.472	13.003	12.566
[2], x2 = 0.8525	–	–	–	14.558	14.054	13.565
[2], x2 = 0.9035	–	–	–	15.741	15.182	14.656
[2], x2 = 0.946	–	–	–	16.795	16.197	15.632

CCCCCCN [1-hexanamine] + CCCO
Details	refractive index, 293.15 K	refractive index, 298.15 K	refractive index, 303.15 K	relative permittivity, 293.15 K	relative permittivity, 298.15 K	relative permittivity, 303.15 K
[1], x2 = 0	1.41808	1.41563	1.41321	–	–	–
[1], x2 = 0.052	1.41775	1.41529	1.41292	–	–	–
[1], x2 = 0.1015	1.41735	1.41492	1.41258	–	–	–
[1], x2 = 0.1475	1.41693	1.41452	1.41223	–	–	–
[1], x2 = 0.2108	1.41627	1.41393	1.4116	–	–	–
[1], x2 = 0.2983	1.41509	1.41276	1.41049	–	–	–
[1], x2 = 0.3967	1.41351	1.4112	1.40878	–	–	–
[1], x2 = 0.4998	1.41113	1.40876	1.40642	–	–	–
[1], x2 = 0.604	1.40784	1.40551	1.40323	–	–	–
[1], x2 = 0.6965	1.40408	1.40199	1.39964	–	–	–
[1], x2 = 0.8013	1.39877	1.39675	1.39454	–	–	–
[1], x2 = 0.8505	1.39588	1.39373	1.39168	–	–	–
[1], x2 = 0.8953	1.39295	1.39085	1.38884	–	–	–
[1], x2 = 0.9486	1.38914	1.38704	1.38505	–	–	–
[2], x2 = 0	–	–	–	3.964	3.904	3.846
[2], x2 = 0.0708	–	–	–	4.411	4.336	4.263
[2], x2 = 0.1073	–	–	–	4.663	4.578	4.499
[2], x2 = 0.147	–	–	–	4.953	4.857	4.77
[2], x2 = 0.1935	–	–	–	5.33	5.222	5.123
[2], x2 = 0.307	–	–	–	6.436	6.286	6.148
[2], x2 = 0.3941	–	–	–	7.471	7.279	7.102
[2], x2 = 0.5056	–	–	–	9.113	8.85	8.605
[2], x2 = 0.6097	–	–	–	10.99	10.649	10.324
[2], x2 = 0.6977	–	–	–	12.847	12.426	12.034
[2], x2 = 0.8044	–	–	–	15.469	14.948	14.463
[2], x2 = 0.8406	–	–	–	16.431	15.885	15.354
[2], x2 = 0.8989	–	–	–	18.08	17.478	16.902
[2], x2 = 0.9504	–	–	–	19.605	18.955	18.33
